Patent publication EP3335720A1, “C-DI-GMP BINDING PEPTIDES” (Universität Basel, priority 2016, dated 2018)

Tests used:
[1] = tested on: P. aeruginosa (PAO1); test: P. aeruginosa growth in presence of peptides (growth curves); format: cell-based; conditions: 64 mg/L peptides, 37°C, MHB; Figure 10
Description: Growth curves were obtained by growing P. aeruginosa (PAO1) in 96-well plates (Falcon #353072) in presence of 64 mg/L peptides at 37°C with agitation in Mueller-Hinton II Broth (MHB) (BD #212322) using an Epoch 2 microplate reader (BioTek).

[2] = target: c-di-GMP; test: Binding affinity of peptides to c-di-GMP by isothermal titration calorimetry (ITC); conditions: for Dissociation constant: pH 8.0
Description: Binding affinities of peptides to c-di-GMP were measured using isothermal titration calorimetry (ITC) on a VP-ITC MicroCalorimeter (MicroCal, Northampton, MA, USA). Peptides, c-di-GMP and buffer (50 mM Tris-HCl, pH 8.0, 100 mM NaCl) were degassed for 15 min prior to filling into sample cell and syringe. All experiments were carried out at a temperature of 15°C. The data were evaluated using ITC Data Analysis in ORIGIN provided by the manufacturer.

[3] = in vitro; format: in vitro ADME, P. aeruginosa PAO1
Description: (§1) P. aeruginosa PAO1 lysate, which was used to test peptide stability, was prepared by the following procedure. 500 ml of cells grown overnight at 37°C were harvested by centrifugation at 5000 rpm, 10 min at 4°C. Pellets were resuspended in 60 ml PBS (Gibco) and centrifuged at 5000 rpm, 10 min at 4°C. Pellets were resuspended again in 20 ml PBS and centrifuged at 5000 rpm, 10 min at 4°C. Cells were disrupted using high-pressure cell disrupter (Stansted Fluid Power). Cell lysate was separated from cell debris by centrifugation at 14,000 rpm for 20 min at 4°C. Lysate was diluted 10 fold to yield a protein content of about 1 mg/ml. The lysate was used for all experiments described below.
The stability of peptides was tested against P. aeruginosa PAO1 cell lysate. About 1 to 3 µg of peptides were incubated with 5 µl P. aeruginosa PAO1 cell lysate or PBS (untreated controls) at 37°C. After 2 hours, 6 µl of 2x SDS sample buffer was added to the samples and heated to 95°C for 5 min. Samples were analyzed on 10-20% Mini-PROTEAN tris-tricine gels (BIO-RAD #4563115) according to manufacturer's recommended protocol. Band intensities were quantified using the program ImageJ (Schneider, C. A., Rasband, W. S. and Eliceiri, K. W. 2012. NIH Image to ImageJ: 25 years of image analysis. Nature methods. 9: 671-675).

[4] = tested on: P. aeruginosa PAO1 biofilms; format: cell-based
Description: The parameter "MBIC50", as used herein, is defined as the peptide concentration leading to 50% biofilm reduction in a standard biofilm assay. Preferably, the medium used for the assay is Mueller-Hinton broth (MHB), since most bacteria can be grown in this medium, and it allows a reliable comparison of MBIC values. MBIC50 values in accordance with the invention are obtained by growing P. aeruginosa at 37°C in presence of different concentrations of peptides, without agitation, for 24 h, followed by staining the adherent biofilm, dissolving the biofilm and measuring the OD600.
The standard biofilm assay (O'Toole G.A., Pratt L.A., Watnick P.I., Newman D.K., Weaver V.B., and Kolter R. 1999. Genetic approaches to study of biofilms. Methods Enzymol. 310: 91-109) was followed with minor modification, i.e. Mueller-Hinton II broth (MHB) (Becton Dickinson #212322) was used instead of lysogenic broth (LB) or minimal medium. MHB is preferred by The European Committee on Antimicrobial Susceptibility Testing (EUCAST) as the medium for MIC determination because most bacteria can be grown in this medium, which allows a more reliable MIC values comparisons. The MBIC50 was defined as the peptide concentration leading to 50% biofilm reduction (de la Fuente-Nunez C., Korolik V., Bains M., Nguyen U., Breidenstein E. B. M., Horsman S., Lewenza S., Burrows L., Hancock, R. E. W. (2012) Inhibition of bacterial biofilm formation and swarming motility by a small synthetic cationic peptide. 56: 2696-2704). MBIC50 values were obtained by growing P. aeruginosa (PAO1) biofilms in 96-well plates (Falcon #353072) in presence of peptides at 37°C without agitation in MHB. After 24 hours, bacterial growth was evaluated by measuring the OD600 in a microtiter plate reader (EL800, BioTek). Afterwards, the plates were rinsed three times with demineralized water to remove non-attached bacteria. The adherent biofilms were stained with 0.1% Crystal Violet and subsequently dissolved in 20% acetic acid. Dissolved biofilms were quantified by measuring the OD600 in a microtiter plate reader.

[5] = tested on: epithelial HeLa cells; test: Cytotoxicity assays: resazurin reduction assay and LDH release assay; format: cell-based, human; conditions: 24 hours, Figures 11 and 12
Description: The cytotoxicity of the peptides was determined with a Resazurin cell viability assay (Sigma #R7017). In a 96-well plate (Corning #3904), monolayers of epithelial HeLa ATCC CCL-2 cells were grown in 100 µl growth medium (DMEM (Sigma #D5796) containing 10% FCS). Afterwards, the medium was removed and either replaced by DMEM/10% FCS containing 2-fold serial diluted peptides with a highest concentration of 256 mg/L. After 24 hours, the medium was removed and replaced by 100 µl fresh growth medium. 1% Triton X-100 (Sigma) was used as positive lysis control. 20 µl of resazurin solution (0.1 mg/ml) was added. After 2 hours, the fluorescence signal was recorded using a microplate reader (Synergy H4 BioTek) with an excitation wavelength of 560 nm and emission wavelength 590 nm.
Cells were prepared and treated with peptides as described for the resazurin reduction assay. 24 hours after peptide treatment, control wells were treated with 1% Triton X-100 (Sigma) as lysis control. LDH release was measured using the LDH Cytotoxicity Detection Kit (Clontech). Absorbance was measured at 490 nm using a microplate reader (Synergy H4 BioTek). The percentage of cell death was calculated as follows: (LDH peptide treated - LDH untreated)/(LDH total lysis - LDH untreated)* 100.

[6] = in vitro; format: in vitro ADME, P. aeruginosa PAO1; conditions: cells or culture medium
Description: as §1
The stability of peptides was tested against P. aeruginosa PAO1 cell lysate. […] Samples were analyzed on 10-20% Mini-PROTEAN tris-tricine gels (BIO-RAD #4563115) according to manufacturer's recommended protocol. Band intensities were quantified using the program ImageJ (Schneider, C. A., Rasband, W. S. and Eliceiri, K. W. 2012. NIH Image to ImageJ: 25 years of image analysis. Nature methods. 9: 671-675).
The protocol mentioned above was also used to compare stability of peptides in the presence of c-di-GMP. […] 14 µl samples were removed at 2, 4, 6 and 8 hours after incubation at 37°C and analyzed on tris-tricine gels as described above.

[7] = Table 3, peptides with amino acid substitution, 15°C

Substance | effect on bacterial growth [1] | Dissociation constant [2, 7] | binding affinity to c-di-GMP, in words ([2]; compared to the core sequence / peptide of SEQ ID NO: 12) | Remaining peptide after 2 hours [3] | MBIC50 compared to the MBIC50 of the peptide of SEQ ID NO: 28 ([4]; lower) | concentration up to which no toxic effect was shown [5] | Kd ([2]; Table 3, peptides with amino acid substitution, 15°C, pH 8.0, read-out: Dissociation constant) | remaining at 2 h [6] | MBIC50 ([4]; PAO1, 24 h)
Ac-DRRRFNSADYKGPRRAKAD-NH2 [SEQ ID NO: 28, AC-DRRRFNSADYKGPRRAKAD-NH2] | do not show an effect on bacterial growth | no binding detected | significantly reduced binding affinities |  |  |  |  |  | 
Ac-DRRRFNSADYKGPRRRKAD-NH2 [SEQ ID NO: 12, AC-DRRRFNSADYKGPRRRKAD-NH2] | do not show an effect on bacterial growth |  |  | 11% | about 4 fold | ≤ 64 µg/mL | 170 nM | 32% | 
Ac-DRRRFNSADYKGPRRAKAD-NH2 [compound 28] |  | no binding |  | 11% |  |  |  | 23% | 1 to 2 mg/L
